In ChEMBL document CHEMBL4482311, “Modulators of Prostate-Specific G-Protein Receptor (PSGR/OR51E2) and Methods of Using Same” (2018):
One block for each molecule: values may come before it. Activity calls are given as the source filed them. The calls are words filed in the database; no cut-off is given here.

Tests used:
LNCaP = assay: Growth inhibition of human LNCAP cells incubated for 7 days by CellTiter-Glo assay; format: functional, cell-based
[1] = target: T1, Olfactory receptor 51E2 (Homo sapiens) (UniProt Q9H255); assay: Agonist activity at PSGR/OR51E2 in human LNCaP cells assessed as induction of change in extracellular metabolites level by measuring glutamic acid level at 1 mM incubated for 72 hrs by GC/MS analysis; format: cell-based
T1 sequence (whole entry): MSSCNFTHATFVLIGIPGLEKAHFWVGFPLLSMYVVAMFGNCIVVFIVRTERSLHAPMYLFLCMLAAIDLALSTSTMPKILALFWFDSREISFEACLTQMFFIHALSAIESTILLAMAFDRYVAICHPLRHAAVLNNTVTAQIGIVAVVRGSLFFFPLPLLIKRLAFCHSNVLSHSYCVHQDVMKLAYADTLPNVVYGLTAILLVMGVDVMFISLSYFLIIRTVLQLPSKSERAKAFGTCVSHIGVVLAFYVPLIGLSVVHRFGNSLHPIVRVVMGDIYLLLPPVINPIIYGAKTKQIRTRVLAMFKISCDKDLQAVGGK

[2] = target: T1, Olfactory receptor 51E2 (Homo sapiens); assay: Agonist activity at PSGR/OR51E2 in human LNCaP cells assessed as induction of change in extracellular metabolites level by measuring guanine level at 1 mM incubated for 72 hrs by GC/MS analysis; format: cell-based
[3] = target: T1, Olfactory receptor 51E2 (Homo sapiens); assay: Agonist activity at PSGR/OR51E2 in human LNCaP cells assessed as induction of change in extracellular metabolites level by measuring lactose level at 1 mM incubated for 72 hrs by GC/MS analysis; format: cell-based
[4] = target: T1, Olfactory receptor 51E2 (Homo sapiens); assay: Agonist activity at PSGR/OR51E2 in human LNCaP cells assessed as induction of change in extracellular metabolites level by measuring aspartic acid level at 1 mM incubated for 72 hrs by GC/MS analysis; format: cell-based
[5] = target: T1, Olfactory receptor 51E2 (Homo sapiens); assay: Agonist activity at PSGR/OR51E2 in human LNCaP cells assessed as induction of change in extracellular metabolites level by measuring spermidine level at 1 mM incubated for 72 hrs by GC/MS analysis; format: cell-based
[6] = target: T1, Olfactory receptor 51E2 (Homo sapiens); assay: Agonist activity at PSGR/OR51E2 in human LNCaP cells assessed as induction of change in intracellular metabolites level by measuring guanine level at 1 mM incubated for 72 hrs by GC/MS analysis; format: cell-based
[7] = target: T1, Olfactory receptor 51E2 (Homo sapiens); assay: Agonist activity at PSGR/OR51E2 in human LNCaP cells assessed as induction of change in extracellular metabolites level by measuring tyramine level at 1 mM incubated for 72 hrs by GC/MS analysis; format: cell-based
[8] = target: T1, Olfactory receptor 51E2 (Homo sapiens); assay: Agonist activity at PSGR/OR51E2 in human LNCaP cells assessed as induction of change in intracellular metabolites level by measuring spermine level at 1 mM incubated for 72 hrs by GC/MS analysis; format: cell-based
[9] = target: T1, Olfactory receptor 51E2 (Homo sapiens); assay: Agonist activity at PSGR/OR51E2 in human LNCaP cells assessed as induction of change in extracellular metabolites level by measuring threitol/erythritol level at 1 mM incubated for 72 hrs by GC/MS analysis; format: cell-based
[10] = target: T1, Olfactory receptor 51E2 (Homo sapiens); assay: Agonist activity at PSGR/OR51E2 in human LNCaP cells assessed as induction of change in intracellular metabolites level by measuring lactic acid level at 1 mM incubated for 72 hrs by GC/MS analysis; format: cell-based
[11] = target: T1, Olfactory receptor 51E2 (Homo sapiens); assay: Agonist activity at PSGR/OR51E2 in human LNCaP cells assessed as induction of change in intracellular metabolites level by measuring serine level at 1 mM incubated for 72 hrs by GC/MS analysis; format: cell-based
[12] = target: T1, Olfactory receptor 51E2 (Homo sapiens); assay: Agonist activity at PSGR/OR51E2 in human LNCaP cells assessed as induction of change in extracellular metabolites level by measuring spermine level at 1 mM incubated for 72 hrs by GC/MS analysis; format: cell-based
[13] = target: T1, Olfactory receptor 51E2 (Homo sapiens); assay: Agonist activity at PSGR/OR51E2 in human LNCaP cells assessed as induction of change in intracellular metabolites level by measuring glycine level at 1 mM incubated for 72 hrs by GC/MS analysis; format: cell-based
[14] = target: T1, Olfactory receptor 51E2 (Homo sapiens); assay: Agonist activity at PSGR/OR51E2 in human LNCaP cells assessed as induction of change in intracellular metabolites level by measuring threonine level at 1 mM incubated for 72 hrs by GC/MS analysis; format: cell-based
[15] = target: T1, Olfactory receptor 51E2 (Homo sapiens); assay: Agonist activity at PSGR/OR51E2 in human LNCaP cells assessed as induction of change in intracellular metabolites level by measuring lactose level at 1 mM incubated for 72 hrs by GC/MS analysis; format: cell-based
[16] = target: T1, Olfactory receptor 51E2 (Homo sapiens); assay: Agonist activity at PSGR/OR51E2 in human LNCaP cells assessed as induction of change in intracellular metabolites level by measuring glutamic acid level at 1 mM incubated for 72 hrs by GC/MS analysis; format: cell-based
[17] = target: T1, Olfactory receptor 51E2 (Homo sapiens); assay: Agonist activity at PSGR/OR51E2 in human LNCaP cells assessed as induction of change in intracellular metabolites level by measuring threitol/erythritol level at 1 mM incubated for 72 hrs by GC/MS analysis; format: cell-based
[18] = target: T1, Olfactory receptor 51E2 (Homo sapiens); assay: Agonist activity at PSGR/OR51E2 in human LNCaP cells assessed as induction of change in intracellular metabolites level by measuring ornithine level at 1 mM incubated for 72 hrs by GC/MS analysis; format: cell-based
[19] = target: T1, Olfactory receptor 51E2 (Homo sapiens); assay: Agonist activity at PSGR/OR51E2 in human LNCaP cells assessed as induction of change in extracellular metabolites level by measuring lactic acid level at 1 mM incubated for 72 hrs by GC/MS analysis; format: cell-based
[20] = target: T1, Olfactory receptor 51E2 (Homo sapiens); assay: Agonist activity at PSGR/OR51E2 in human LNCaP cells assessed as induction of change in intracellular metabolites level by measuring dehydro-alanine level at 1 mM incubated for 72 hrs by GC/MS analysis; format: cell-based
[21] = target: T1, Olfactory receptor 51E2 (Homo sapiens); assay: Agonist activity at PSGR/OR51E2 in human LNCaP cells assessed as induction of change in intracellular metabolites level by measuring tyramine level at 1 mM incubated for 72 hrs by GC/MS analysis; format: cell-based
[22] = target: T1, Olfactory receptor 51E2 (Homo sapiens); assay: Agonist activity at PSGR/OR51E2 in human LNCaP cells assessed as induction of change in extracellular metabolites level by measuring glycine level at 1 mM incubated for 72 hrs by GC/MS analysis; format: cell-based
[23] = target: T1, Olfactory receptor 51E2 (Homo sapiens); assay: Agonist activity at PSGR/OR51E2 in human LNCaP cells assessed as induction of change in extracellular metabolites level by measuring threonine level at 1 mM incubated for 72 hrs by GC/MS analysis; format: cell-based
[24] = target: T1, Olfactory receptor 51E2 (Homo sapiens); assay: Agonist activity at PSGR/OR51E2 in human LNCaP cells assessed as induction of change in extracellular metabolites level by measuring glutamine level at 1 mM incubated for 72 hrs by GC/MS analysis; format: cell-based
[25] = target: T1, Olfactory receptor 51E2 (Homo sapiens); assay: Agonist activity at PSGR/OR51E2 in human LNCaP cells assessed as induction of change in extracellular metabolites level by measuring dehydro-alanine level at 1 mM incubated for 72 hrs by GC/MS analysis; format: cell-based
[26] = target: T1, Olfactory receptor 51E2 (Homo sapiens); assay: Agonist activity at PSGR/OR51E2 in human LNCaP cells assessed as induction of change in extracellular metabolites level by measuring ornithine level at 1 mM incubated for 72 hrs by GC/MS analysis; format: cell-based
[27] = target: T1, Olfactory receptor 51E2 (Homo sapiens); assay: Agonist activity at PSGR/OR51E2 in human LNCaP cells assessed as induction of change in intracellular metabolites level by measuring glutamine level at 1 mM incubated for 72 hrs by GC/MS analysis; format: cell-based
[28] = target: T1, Olfactory receptor 51E2 (Homo sapiens); assay: Agonist activity at PSGR/OR51E2 in human LNCaP cells assessed as induction of change in extracellular metabolites level by measuring serine level at 1 mM incubated for 72 hrs by GC/MS analysis; format: cell-based
[29] = target: T1, Olfactory receptor 51E2 (Homo sapiens); assay: Agonist activity at PSGR/OR51E2 in human LNCaP cells assessed as induction of change in intracellular metabolites level by measuring aspartic acid level at 1 mM incubated for 72 hrs by GC/MS analysis; format: cell-based
[30] = target: T1, Olfactory receptor 51E2 (Homo sapiens); assay: Agonist activity at PSGR/OR51E2 in human LNCaP cells assessed as induction of change in intracellular metabolites level by measuring spermidine level at 1 mM incubated for 72 hrs by GC/MS analysis; format: cell-based

Compound: CC1=C(/C=C/C(C)=C/C=C/C(C)=C\C(=O)O)C(C)(C)CCC1
growth inhibition (GI) (LNCaP): Active

Activity [1]: Active
Activity [2]: Active
Activity [3]: Active
Activity [4]: Active
Activity [5]: Active
Activity [6]: Active
Activity [7]: Active
Activity [8]: Active
Activity [9]: Active
Activity [10]: Active
Activity [11]: Active
Activity [12]: Active
Activity [13]: Active
Activity [14]: Active
Activity [15]: Active
Activity [16]: Active
Activity [17]: Active
Activity [18]: Active
Activity [19]: Active
Activity [20]: Active
Activity [21]: Active
Activity [22]: Active
Activity [23]: Active
Activity [24]: Active
Activity [25]: Active
Activity [26]: Active
Activity [27]: Active
Activity [28]: Active
Activity [29]: Active
Activity [30]: Active
Compound: CCC(=O)O
